Values quoted from earlier work in US20110230549A1, “PHARMACEUTICAL COMPOSITIONS FOR THE TREATMENT OF PAIN” (GW Pharma Limited, priority 2005, published 2011).

Key:
[1] = tested on: patient with familial Mediterranean fever; conditions: 50 mg
[2] = tested on: PBQ-induced writhing in mice; conditions: compared among cannabinoids and pre-cursors

SMILES	Amount of analgesia that the patient required [1]	Effectiveness at reducing analgesia and inflammation [2]	Inhibition of PBQ-induced writhing in mice ([2]; oral administration)
CCCCCc1cc(O)c2c(c1)OC(C)(C)[C@@H]1CCC(C)=C[C@@H]21 [THC, delta-9-tetrahydrocannabinol]	highly significant reduction	least effective	
C=C(C)[C@@H]1CCC(C)=C[C@H]1c1c(O)cc(CCCCC)cc1O [CBD, cannabidiol]			most effective
CCCCCc1cc(O)c2c(c1)OC(C)(C)c1ccc(C)cc1-2 [CBN]		least effective	
